Assay results as given in publication PMC7008132 (European journal of medicinal chemistry, 2019).

Legend:
[1] = target: human MDM2 (residues 1–118) (Homo sapiens, UniProt Q00987); test: Fluorescence polarization; settings: fluorescence polarization assay; qualitative statement
[2] = test system: p53-wild-type SJSA-1 and U-2 OS cells; settings: 24 h treatment, nutlin-3a 5 μM positive control
[3] = test system: HCT 116 cells; test: FITC-Annexin V/propidium iodide apoptosis analysis; settings: HCT 116 (p53-wild-type); 72 h; Annexin V/PI flow cytometry
[4] = Stability of compound in solution; format: physicochemical; settings: while in solution

Row | MDM2 binding activity in words [1] | Structure (SMILES) | other results
1 | no binding | CC(C)(C)NC(=O)C(c1ccc(Cl)cc1)N(C=O)Cc1ccc(OCc2ccc(Cl)c(Cl)c2)cc1 (stereo not shown) [compound 10, N-(tert-butyl)-2-(4-chlorophenyl)-2-(N-(4-((3,4-dichlorobenzyl)oxy)benzyl) formamido)acetamide] | 
2 | total loss of activity | Cn1c(C(=O)O)c(C(C(=O)NC(C)(C)C)N(C=O)Cc2ccc(OCc3ccccc3Br)cc2)c2ccc(Cl)cc21 (stereo not shown) [compound 9, 3-(1-(N-(4-((2-bromobenzyl)oxy)benzyl)formamido)-2-(tert-butylamino)-2-oxoethyl)-6-chloro-1-methyl-1H-indole-2-carboxylic acid] | 
3 | no binding | CC(C)(C)NC(=O)C(c1cccc(Cl)c1)N(C=O)Cc1ccc(Cl)cc1 (stereo not shown) [compound 11, N-(tert-butyl)-2-(N-(4-chlorobenzyl)formamido)-2-(3-chlorophenyl)acetamide] | 
4 |  | COc1ccc(C2=N[C@@H](c3ccc(Cl)cc3)[C@@H](c3ccc(Cl)cc3)N2C(=O)N2CCNC(=O)C2)c(OC(C)C)c1 [Nutlin-3a] | Induction of MDM2 and p21 expression [2]: potent induction of MDM2 and p21
5 |  | CC(C)(C)NC(=O)[C@H](c1c(C(=O)O)[nH]c2cc(Cl)ccc12)N(C=O)Cc1ccc(OCc2ccccc2Br)cc1 [(−)-6m] | Induction of apoptosis [3]: induced apoptosis in p53-wild-type HCT 116 cells, comparable to nutlin-3a
6 |  | CC(C)(C)NC(=O)C(c1c(C(=O)O)[nH]c2cc(Cl)ccc12)N(C=O)Cc1ccc(NCc2ccc(Br)cc2)cc1 (stereo not shown) [compound 8, 3-(2-(tert-butylamino)-1-(N-(4-((4-bromobenzyl)amino)benzyl)formamido)-2-oxoethyl)-6-chloro-1H-indole-2-carboxylic acid] | Stability in solution [4]: susceptible to degradation
7 | almost in loss of activity | O=CN(Cc1ccc(OCc2ccc(F)cc2)cc1)C(C(=O)NC12CC3CC(CC(C3)C1)C2)c1c(C(=O)O)[nH]c2cc(Cl)ccc12 (stereo not shown) [compound 17, 3-(2-((3s,5s,7s)-adamantan-1-ylamino)-1-(N-(4-((4-fluorobenzyl)oxy)benzyl)formamido)-2-oxoethyl)-6-chloro-1H-indole-2-carboxylic acid] | 
